Molecules are shown by their SMILES.

One may read the IC50 as the concentration that gives 50% inhibition. Read a high IC50 as weaker potency in that assay.

The target of the experiment is purified human MMP-12 enzyme (Homo sapiens, UniProt P39900). Put plainly: MMP-12 FRET assay. The experiment is classed as biochemical. The settings on record: substrate 20 μM, room temperature. The procedure, abridged: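 Enzyme pre-incubated 30 min at room temperature with compound in 50 mM HEPES pH 7.4, 100 mM NaCl, 5 mM CaCl2, 0.005% Brij-35, 10% DMSO final. Reaction started with 20 μM MCA-Pro-Leu-Gly-Leu-Dpa(DNP)-Ala-Arg, and initial cleavage rate read over 30 min (λex 325, λem 395 nm). IC50 from slope-factor inhibition fit.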
purified human MMP-12 enzyme, sequence (P39900 106-470): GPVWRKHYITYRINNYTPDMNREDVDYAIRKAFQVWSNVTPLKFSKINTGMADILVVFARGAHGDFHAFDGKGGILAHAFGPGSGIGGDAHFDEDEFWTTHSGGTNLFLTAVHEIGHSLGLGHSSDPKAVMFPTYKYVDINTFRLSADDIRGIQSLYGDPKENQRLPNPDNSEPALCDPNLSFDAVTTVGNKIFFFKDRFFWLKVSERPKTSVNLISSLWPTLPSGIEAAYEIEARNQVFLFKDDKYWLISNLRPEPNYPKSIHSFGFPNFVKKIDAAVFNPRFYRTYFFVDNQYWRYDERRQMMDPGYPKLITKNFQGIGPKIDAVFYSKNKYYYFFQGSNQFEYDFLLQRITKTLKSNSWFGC
Take `CC(C)[C@H](NS(=O)(=O)c1ccc2c(c1)oc1cc(-c3nc4ccccc4o3)ccc12)C(=O)O` [Compound 227, (S)-2-(7-(benzo[d]oxazol-2-yl)dibenzo[b,d]furan-3-sulfonamido)-3-methylbutanoic acid]: the IC50 was 6.1 nM.

Compound `CC(C)[C@@H](NS(=O)(=O)c1ccc2oc3cc(-c4nc5ccc(C(F)(F)F)cc5s4)ccc3c2c1)C(=O)O` [Compound 302, (R)-3-methyl-2-(7-(6-(trifluoromethyl)benzo[d]thiazol-2-yl)dibenzo[b,d]furan-2-sulfonamido)butanoic acid] yielded an IC50 of 28 nM.

In turn, `CC(C)[C@H](NS(=O)(=O)c1ccc2c(c1)oc1ccc(-c3ccc(C(F)(F)F)s3)cc12)C(=O)O` [Compound 131, (S)-3-methyl-2-(8-(5-(trifluoromethyl)thiophen-2-yl)dibenzo[b,d]furan-3-sulfonamido)butanoic acid] returned an IC50 of less than 1.5 nM.

As for `CCCn1cc(-c2ccc3oc4cc(S(=O)(=O)N[C@H](C(=O)O)C(C)C)ccc4c3c2)cn1` [Compound 21, (S)-3-methyl-2-(8-(1-propyl-1H-pyrazol-4-yl)dibenzo[b,d]furan-3-sulfonamido)butanoic acid], the half-maximal inhibitory concentration (IC50) was less than 1.5 nM.

As to `CC(C)[C@H](NS(=O)(=O)c1ccc2c(c1)oc1ccc(C3=NCCO3)cc12)C(=O)O` [Compound 83, (S)-2-(8-(4,5-dihydrooxazol-2-yl)dibenzo[b,d]furan-3-sulfonamido)-3-methylbutanoic acid], half-maximal inhibition (IC50) required 2.8 nM.

In turn, `CC(C)[C@@H](NS(=O)(=O)c1ccc2oc3cc(-c4nc5c(F)c(F)c(F)cc5s4)ccc3c2c1)C(=O)O` [Compound 300, (R)-3-methyl-2-(7-(4,5,6-trifluorobenzo[d]thiazol-2-yl)dibenzo[b,d]furan-2-sulfonamido)butanoic acid] returned an IC50 of 51 nM.

Compound `CC(C)[C@@H](NS(=O)(=O)c1ccc2oc3cc(-c4nc5ccc(OC(F)(F)F)cc5s4)ccc3c2c1)C(=O)O` [Compound 301, (R)-3-methyl-2-(7-(6-(trifluoromethoxy)benzo[d]thiazol-2-yl)dibenzo[b,d]furan-2-sulfonamido)butanoic acid] had an IC50 of 78 nM.

With `COc1ncc(-c2ccc3c(c2)oc2ccc(S(=O)(=O)N[C@@H](C(=O)O)C(C)C)cc23)cn1` [Compound 168, (R)-2-(7-(2-methoxypyrimidin-5-yl)dibenzo[b,d]furan-2-sulfonamido)-3-methylbutanoic acid], half-maximal inhibition (IC50) required 1.5 nM.

As to `Cc1nc(C)c(-c2ccc3oc4cc(S(=O)(=O)N[C@H](C(=O)O)C(C)C)ccc4c3c2)s1` [Compound 201, (S)-2-(8-(2,4-dimethylthiazol-5-yl)dibenzo[b,d]furan-3-sulfonamido)-3-methylbutanoic acid], the IC50 is less than 1.5 nM.

Compound `CC(C)[C@@H](NS(=O)(=O)c1ccc2oc3cc(-c4nc5ccc(F)cc5s4)ccc3c2c1)C(=O)O` [Compound 297, (R)-2-(7-(6-fluorobenzo[d]thiazol-2-yl)dibenzo[b,d]furan-2-sulfonamido)-3-methylbutanoic acid] displayed an IC50 of 2.2 nM.

`CC(C)[C@@H](NS(=O)(=O)c1ccc2sc3cc(-c4ccc(Cl)o4)ccc3c2c1)C(=O)O` [Compound 288, (R)-2-(7-(5-chlorofuran-2-yl)dibenzo[b,d]thiophene-2-sulfonamido)-3-methylbutanoic acid] displayed an IC50 of 110 nM.

The compound `CC(C)[C@H](NS(=O)(=O)c1ccc2c(c1)oc1ccc(-c3cnn(CCN4CCOCC4)c3)cc12)C(=O)O` [Compound 158, (S)-3-methyl-2-(8-(1-(2-morpholinoethyl)-1H-pyrazol-4-yl)dibenzo[b,d]furan-3-sulfonamido)butanoic acid] returned an IC50 of 223 nM.

Turning to `CC(C)[C@H](NS(=O)(=O)c1ccc2c(c1)oc1ccc(-c3cn[nH]c3)cc12)C(=O)O` [Compound 23, (S)-2-(8-(1H-pyrazol-4-yl)dibenzo[b,d]furan-3-sulfonamido)-3-methylbutanoic acid], the IC50 is less than 1.5 nM.

Compound `CC(=O)c1ccc(-c2ccc3oc4cc(S(=O)(=O)N[C@H](C(=O)O)C(C)C)ccc4c3c2)s1` [Compound 32, (S)-2-(8-(5-acetylthiophen-2-yl)dibenzo[b,d]furan-3-sulfonamido)-3-methylbutanoic acid] gave an IC50 of less than 1.5 nM.

Regarding `Cc1cnc(-c2ccc3c(c2)oc2cc(S(=O)(=O)N[C@H](C(=O)O)C(C)C)ccc23)s1` [Compound 234, (S)-3-methyl-2-(7-(5-methylthiazol-2-yl)dibenzo[b,d]furan-3-sulfonamido)butanoic acid], the IC50 was less than 1.5 nM.

In the case of `CC(C)[C@@H](NS(=O)(=O)c1ccc2oc3cc(-c4noc(C5CCC5)n4)ccc3c2c1)C(=O)O` [Compound 148, (R)-2-(7-(5-cyclobutyl-1,2,4-oxadiazol-3-yl)dibenzo[b,d]furan-2-sulfonamido)-3-methylbutanoic acid], the IC50 was less than 1.5 nM.

Turning to `CC(C)[C@H](NS(=O)(=O)c1ccc2c(c1)sc1cc(-c3ccc(Cl)o3)ccc12)C(=O)O` [Compound 182, (S)-2-(7-(5-chlorofuran-2-yl)dibenzo[b,d]thiophene-3-sulfonamido)-3-methylbutanoic acid], the IC50 is less than 1.5 nM.

In turn, `CC(C)CCn1cc(-c2ccc3oc4cc(S(=O)(=O)N[C@H](C(=O)O)C(C)C)ccc4c3c2)cn1` [Compound 20, (S)-2-(8-(1-isopentyl-1H-pyrazol-4-yl)dibenzo[b,d]furan-3-sulfonamido)-3-methylbutanoic acid] yielded an IC50 of 4 nM.

Regarding `CC(C)[C@@H](NS(=O)(=O)c1ccc2oc3cc(-c4noc(CC5CCCC5)n4)ccc3c2c1)C(=O)O` [Compound 191, (R)-2-(7-(5-(cyclopentylmethyl)-1,2,4-oxadiazol-3-yl)dibenzo[b,d]furan-2-sulfonamido)-3-methylbutanoic acid], the IC50 turned out to be 3.3 nM.

With `CC(C)[C@H](NS(=O)(=O)c1ccc2c(c1)oc1ccc(-c3noc(CC(C)(C)C)n3)cc12)C(=O)O` [Compound 261, (S)-3-methyl-2-(8-(5-neopentyl-1,2,4-oxadiazol-3-yl)dibenzo[b,d]furan-3-sulfonamido)butanoic acid], the midpoint of inhibition, the IC50, lay at 5.4 nM.

As for `CC(C)[C@H](NS(=O)(=O)c1ccc2c(c1)oc1ccc(-c3noc(-c4ccc(Cl)cc4Cl)n3)cc12)C(=O)O` [Compound 270, (S)-2-(8-(5-(2,4-dichlorophenyl)-1,2,4-oxadiazol-3-yl)dibenzo[b,d]furan-3-sulfonamido)-3-methylbutanoic acid], the IC50 was less than 1.5 nM.

`CC(C)[C@H](NS(=O)(=O)c1ccc2c(c1)oc1ccc(-c3noc(-c4ccc(C(F)(F)F)cc4)n3)cc12)C(=O)O` [Compound 271, (S)-3-methyl-2-(8-(5-(4-(trifluoromethyl)phenyl)-1,2,4-oxadiazol-3-yl)dibenzo[b,d]furan-3-sulfonamido)butanoic acid] gave an IC50 of 3.7 nM.

The compound `CC(C)[C@@H](NS(=O)(=O)c1ccc2oc3cc(-c4noc(CC(C)(C)C)n4)ccc3c2c1)C(=O)O` [Compound 189, (R)-3-methyl-2-(7-(5-neopentyl-1,2,4-oxadiazol-3-yl)dibenzo[b,d]furan-2-sulfonamido)butanoic acid] had an IC50 of 4.5 nM.

The compound `Cc1nnc(-c2ccc3oc4cc(S(=O)(=O)N[C@H](C(=O)O)C(C)C)ccc4c3c2)s1` [Compound 146, (S)-3-methyl-2-(8-(5-methyl-1,3,4-thiadiazol-2-yl)dibenzo[b,d]furan-3-sulfonamido)butanoic acid] showed an IC50 of 1.7 nM.

The compound `CC(C)(C)c1nc(-c2ccc3c(c2)oc2ccc(S(=O)(=O)N[C@@H](Cc4c[nH]c5ccccc45)C(=O)O)cc23)no1` [Compound 280] gave an IC50 of 15 nM.

Compound `CC(C)[C@H](NS(=O)(=O)c1ccc2c(c1)oc1cc(-c3noc(C(C)(C)C)n3)ccc12)C(=O)O` [Compound 155, (S)-2-(7-(5-tert-butyl-1,2,4-oxadiazol-3-yl)dibenzo[b,d]furan-3-sulfonamido)-3-methylbutanoic acid] returned an IC50 of 11 nM.

In turn, `CC(C)[C@@H](NS(=O)(=O)c1ccc2oc3cc(-c4ccc(Br)s4)ccc3c2c1)C(=O)O` [Compound 144, (R)-2-(7-(5-bromothiophen-2-yl)dibenzo[b,d]furan-2-sulfonamido)-3-methylbutanoic acid] registered an IC50 of 2.2 nM.

In turn, `CC(C)[C@@H](NS(=O)(=O)c1ccc2sc3cc(-c4ccco4)ccc3c2c1)C(=O)O` [Compound 287, (R)-2-(7-(furan-2-yl)dibenzo[b,d]thiophene-2-sulfonamido)-3-methylbutanoic acid] had an IC50 of 70 nM.

Compound `CC(C)[C@H](NS(=O)(=O)c1ccc2c(c1)oc1ccc(C(=O)O)cc12)C(=O)O` [Compound 273, (S)-7-(N-(1-carboxy-2-methylpropyl)sulfamoyl)dibenzo[b,d]furan-2-carboxylic acid] gave a 50% inhibitory concentration (IC50) of 210 nM.

For `CC(C)[C@H](NS(=O)(=O)c1ccc2c(c1)oc1ccc(-c3ncon3)cc12)C(=O)O` [Compound 93, (S)-2-(8-(1,2,4-oxadiazol-3-yl)dibenzo[b,d]furan-3-sulfonamido)-3-methylbutanoic acid], the IC50 was found to be 68 nM.

In turn, `CC(C)(C)c1nc(-c2ccc3c(c2)oc2ccc(S(=O)(=O)NCC(=O)O)cc23)no1` [Compound 274, 2-(7-(5-tert-butyl-1,2,4-oxadiazol-3-yl)dibenzo[b,d]furan-2-sulfonamido)acetic acid] gave a half-inhibitory concentration (IC50) of 60 nM.

On to `CC(C)c1nc(-c2ccc3c(c2)oc2ccc(S(=O)(=O)N[C@@H](C(=O)O)C(C)C)cc23)no1` [Compound 138, (R)-2-(7-(5-isopropyl-1,2,4-oxadiazol-3-yl)dibenzo[b,d]furan-2-sulfonamido)-3-methylbutanoic acid], for which 2.8 nM corresponded to half-maximal inhibition (IC50).

In turn, `CC(C)[C@H](NS(=O)(=O)c1ccc2c(c1)oc1cc(-c3noc(C4CC4)n3)ccc12)C(=O)O` [Compound 187, (S)-2-(7-(5-cyclopropyl-1,2,4-oxadiazol-3-yl)dibenzo[b,d]furan-3-sulfonamido)-3-methylbutanoic acid] came in with an IC50 of 5.5 nM.

Source of the values: patent US20100227859A1, “TRICYCLIC COMPOUNDS AS MATRIX METALLOPROTEINASE INHIBITORS” (priority 2007, published 2010).
